Values after ≈ are worked out from the molar mass of the structure shown. Counter-ions that a name gives are not always drawn. One block for each compound: values may come before it.
Experiments:
[1] = Solubility of salts in water by HPLC; assay type: physicochemical; settings: for Solubility at Adjusted pH / Solubility at Native pH: radezolid salts in water by HPLC at 23° C.; for Solubility at Adjusted pH: pH adjusted to ~3.5; for Native pH: supernatant of saturated salt solution in water
Method: In another set of experiments, solubility of various radezolid salts was determined by HPLC. Approximately 1 mL of saturated solution (with excess of solid in solution) of each salt was prepared in water. The mixture was further mixed overnight on a slurry wheel then centrifuged on a desktop centrifuge at maximum speed for ˜5 min. The supernatant was collected, and pH was measured. Solubility was determined at the native pH. Then the pH was adjusted to ˜3.5 with sodium hydroxide solution or an acid solution in which salt was generated. The supernatant was filtered through a 0.2 μm nylon syringe filter and diluted into 0.1% formic acid solution immediately after filtration for HPLC. All HPLC analyses were performed using an Agilent 1100 series liquid chromatograph equipped with a diode array detector, degasser, quaternary pump, and an autosampler. […] The column temperature was set to 30° C., and the detector wavelength was 270 nm with a bandwidth of 8 nm and a reference wavelength of 360 nm. The mobile phase A was 0.1% formic acid in water (HPLC grade), mobile phase B was 0.1% formic acid in methanol (HPLC grade). […] The injection volume was 5 μl.

[2] = Dynamic vapor sorption/desorption (DVS); assay type: physicochemical; settings: radezolid salts
Method: Dynamic vapor sorption/desorption (DVS) data were collected on a VTI SGA-100 Vapor Sorption Analyzer. Sorption and desorption data were collected over a range of 5% to 95% relative humidity (RH) at 10% RH intervals under a nitrogen purge. Samples were not dried prior to analysis. Equilibrium criteria used for analysis were less than 0.0100% weight change in 5 minutes, with a maximum equilibration time of 3 hours if the weight criterion was not met. Data were not corrected for the initial moisture content of the samples. Sodium chloride and polyvinylpyrrolidine (PVP) were used as calibration standards.

[3] = assay type: physicochemical; settings: radezolid salt forms in HPLC grade water, ambient temperature
[4] = system: S. aureus; experiment: Minimum inhibitory concentrations (MICs) for S. aureus of exemplary compounds (Table 2); assay type: cell-based; settings: Staphylococcus aureus, minimum inhibitory concentrations for S. aureus; read-out: MICs
Method in brief: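 Growth of S. aureus in media with or without compound, by broth microdilution in microtiter trays following NCCLS M7-A5 guidelines. Values are MICs in μg/mL.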

SMILES: CC(=O)NC[C@H]1CN(c2ccc(-c3ccc(CNCc4cnn[nH]4)cc3)c(F)c2)C(=O)O1 [Sulfate, Radezolid Sulfate Salt]
Solubility at Adjusted pH ([1]; Sulfate Salt): 3.3 mg/mL | Solubility at Native pH ([1]; Sulfate Salt): 4.0 mg/mL | Native pH ([1]; Sulfate Salt): 1.9 | DVS desorption: weight loss from 95 to 5% RH ([2]; Sulfate Salt): Desorption: 11.504% weight loss | DVS sorption: weight gain from 5 to 95% RH ([2]; Sulfate Salt): 11.527% weight gain from 5 to | DVS sorption: weight loss upon equilibration at 5% RH ([2]; Sulfate Salt): Sorption: 0.654% weight loss

SMILES: CC(=O)NC[C@H]1CN(c2ccc(-c3ccc(CNCc4cnn[nH]4)cc3)c(F)c2)C(=O)O1 [Benzoate]
solubility [3]: <0.03 mg/mL

SMILES: CC(=O)NC[C@H]1CN(c2ccc(-c3ccc(CNCc4cnn[nH]4)cc3)c(F)c2)C(=O)O1 [Citrate]
solubility [3]: 2.6 mg/mL

SMILES: CC(=O)NC[C@H]1CN(c2ccc(-c3ccc(CNCc4cnn[nH]4)cc3)c(F)c2)C(=O)O1 [Lactate]
solubility [3]: <0.02 mg/mL

SMILES: CC(=O)NC[C@H]1CN(c2ccc(-c3ccc(CNCc4cnn[nH]4)cc3)c(F)c2)C(=O)O1 [Tosylate, Radezolid Tosylate Salt]
Solubility at Adjusted pH ([1]; Tosylate Salt): 0.4 mg/mL | Solubility at Native pH ([1]; Tosylate Salt): 0.9 mg/mL | Native pH ([1]; Tosylate Salt): 5.1 | DVS desorption: weight loss from 95 to 5% RH ([2]; Tosylate Salt): Desorption: 0.435% weight loss | DVS sorption: weight gain from 5 to 95% RH ([2]; Tosylate Salt): 0.435% weight gain from 5 to | DVS sorption: weight loss upon equilibration at 5% RH ([2]; Tosylate Salt): Sorption: 0.070% weight loss

SMILES: CC(=O)NC[C@H]1CN(c2ccc(-c3ccc(CNCc4cnn[nH]4)cc3)c(F)c2)C(=O)O1 [Succinate]
solubility [3]: <0.03 mg/mL

SMILES: CC(=O)NC[C@H]1CN(c2ccc(-c3ccc(CNCc4cnn[nH]4)cc3)c(F)c2)C(=O)O1 [Salicylate]
solubility [3]: <0.03 mg/mL

SMILES: CC(=O)NC[C@H]1CN(c2ccc(-c3ccc(CNCc4cnn[nH]4)cc3)c(F)c2)C(=O)O1 [Tartrate]
solubility [3]: 1.8 mg/mL

SMILES: CC(=O)NC[C@H]1CN(c2ccc(-c3ccc(CNCc4cnn[nH]4)cc3)c(F)c2)C(=O)O1 [Acetate]
solubility [3]: <0.02 mg/mL

SMILES: CC(=O)NC[C@H]1CN(c2ccc(-c3ccc(CNCc4cnn[nH]4)cc3)c(F)c2)C(=O)O1 [Ethane-1,2-disulfonate, Radezolid Ethanedisulfonate Salt]
Solubility at Native pH [1]: >133.2 mg/mL | Solubility at Adjusted pH [1]: >116.9 mg/mL | Native pH [1]: 2.0 | DVS desorption: weight loss from 95 to 5% RH [2]: Desorption: 2.388% weight loss | DVS sorption: weight gain from 5 to 95% RH [2]: 2.355% weight gain from 5 to | DVS sorption: weight loss upon equilibration at 5% RH [2]: Sorption: 0.017% weight loss

SMILES: CC(=O)NC[C@H]1CN(c2ccc(-c3ccc(CNCc4cnn[nH]4)cc3)c(F)c2)C(=O)O1 [Esylate, Radezolid Esylate Salt]
Solubility at Native pH [1]: 53.8 mg/mL | Solubility at Adjusted pH [1]: 61.7 mg/mL | Native pH [1]: 4.0 | DVS desorption: weight loss from 95 to 5% RH [2]: Desorption: 2.999% weight loss | DVS sorption: weight gain from 5 to 95% RH [2]: 2.930% weight gain from 5 to | DVS sorption: weight loss upon equilibration at 5% RH [2]: Sorption: 0.22% weight loss

SMILES: CC(=O)NC[C@H]1CN(c2ccc(-c3ccc(CNCc4cnn[nH]4)cc3)c(F)c2)C(=O)O1 [Mesylate, Radezolid Mesylate Salt]
Solubility at Adjusted pH ([1]; Mesylate Salt): 18.0 mg/mL | Solubility at Native pH ([1]; Mesylate Salt): 18.6 mg/mL | Native pH ([1]; Mesylate Salt): 4.1 | DVS desorption: weight loss from 95 to 5% RH ([2]; Mesylate Salt): Desorption: 0.835% weight loss | DVS sorption: weight gain from 5 to 95% RH ([2]; Mesylate Salt): 1.025% weight gain from 5 to | DVS sorption: weight loss upon equilibration at 5% RH ([2]; Mesylate Salt): Sorption: 0.114% weight loss

SMILES: CC(=O)NC[C@H]1CN(c2ccc(-c3ccc(CNCc4cnn[nH]4)cc3)c(F)c2)C(=O)O1 [Phosphate]
solubility [3]: 1.1 mg/mL

SMILES: CC(=O)NC[C@H]1CN(c2ccc(-c3ccc(CNCc4cnn[nH]4)cc3)c(F)c2)C(=O)O1 [Maleate]
solubility [3]: 2.3 mg/mL

MIC [4]: 4 µg/mL (≈ 7.43 µM)
SMILES: CCC(O)Cc1cn(CC(=O)NCc2ccc(-c3ccc(N4C[C@H](CNC(C)=O)OC4=O)cc3F)cc2)nn1 (stereo partly drawn) [Compound 4241, N-{4′-[5-(S)-(Acetylamino-methyl)-2-oxo-oxazolidin-3-yl]-2′-fluoro-biphenyl-4-ylmethyl}-2-[4-(2-hydroxy-butyl)-[1,2,3]triazol-1-yl]-acetamide]

MIC [4]: 1 µg/mL
SMILES: CC(=O)NC[C@H]1CN(c2ccc(-c3ccc(CN4CCCC(F)C4)cc3)c(F)c2)C(=O)O1 (mixture of isomers) [Compound 1096, N-{3-[2-Fluoro-4′-(3-(R/S)-fluoro-piperidin-1-ylmethyl)-biphenyl-4-yl]-2-oxo-oxazolidin-5-(S)-ylmethyl}-acetamide]

MIC [4]: 16 µg/mL (≈ 31.8 µM)
SMILES: CC(=O)NC[C@H]1CN(c2ccc(-c3ccc(CNCc4csc5ccccc45)cc3)c(F)c2)C(=O)O1 [Compound 4077, N-[3-(4′-{[(Benzo[b]thiophen-3-ylmethyl)-amino]-methyl}-2-fluoro-biphenyl-4-yl)-2-oxo-oxazolidin-5-(S)-ylmethyl]-acetamide]

MIC [4]: 2 µg/mL (≈ 5.03 µM)
SMILES: CC(=O)NC[C@H]1CN(c2ccc(-c3ccc(CN4CCC4)cc3)c(F)c2)C(=O)O1 [Compound 1090, N-[3-(4′-Azetidin-1-ylmethyl-2-fluoro-biphenyl-4-yl)-2-oxo-oxazolidin-5-(S)-ylmethyl]-acetamide]

MIC [4]: 4 µg/mL (≈ 8.27 µM)
SMILES: CC(=O)NC[C@H]1CN(c2ccc(-c3ccc(CNCC(=O)N4CCNCC4)cc3)c(F)c2)C(=O)O1 [Compound 4314, N-(3-{2-Fluoro-4′-[(2-oxo-2-piperazin-1-yl-ethylamino)-methyl]-biphenyl-4-yl}-2-oxo-oxazolidin-5-(S)-ylmethyl)-acetamide]

MIC [4]: 2 µg/mL (≈ 4.07 µM)
SMILES: CC(=O)NC[C@H]1CN(c2ccc(-c3ccc([C@H](O)CN(C)Cc4ccccc4)cc3)c(F)c2)C(=O)O1 [Compound 4251, N-(3-{4′-[2-(Benzyl-methyl-amino)-1-(S)-hydroxy-ethyl]-2-fluoro-biphenyl-4-yl}-2-oxo-oxazolidin-5-(S)-ylmethyl)-acetamide]

MIC [4]: 1 µg/mL (≈ 2.16 µM)
SMILES: CC(=O)NC[C@H]1CN(c2ccc(-c3ccc(CN(C)Cc4ccncc4)cc3)c(F)c2)C(=O)O1 [Compound 4044, N-(3-{2-Fluoro-4′-[(methyl-pyridin-4-ylmethyl-amino)-methyl]-biphenyl-4-yl}-2-oxo-oxazolidin-5-(S)-ylmethyl)-acetamide]

MIC [4]: 2 µg/mL (≈ 4.35 µM)
SMILES: CC(=O)NC[C@H]1CN(c2ccc(-c3ccc(CN4CC[S+]([O-])CC4)cc3)c(F)c2)C(=O)O1 [Compound 1065, N-{3-[2-Fluoro-4′-(1-oxo-1 lambda*4*-thiomorpholin-4-ylmethyl)-biphenyl-4-yl]-2-oxo-oxazolidin-5-(S)-ylmethyl}-acetamide]

MIC [4]: 8 µg/mL (≈ 18.1 µM)
SMILES: CC(=O)NC[C@H]1CN(c2ccc(-c3ccc(CNCC4CCOC4)cc3)c(F)c2)C(=O)O1 (stereo partly drawn) [Compound 4219, N-[3-(2-Fluoro-4′-{[(tetrahydro-furan-3-ylmethyl)-amino]-methyl}-biphenyl-4-yl)-2-oxo-oxazolidin-5-(S)-ylmethyl]-acetamide]

SMILES: CC(=O)NC[C@H]1CN(c2ccc(-c3ccc(CNCc4cnn[nH]4)cc3)c(F)c2)C(=O)O1 [Fumarate]
solubility [3]: 2.6 mg/mL

MIC [4]: 2 µg/mL (≈ 4.1 µM)
SMILES: CC(=O)NC[C@H]1CN(c2ccc(-c3ccc(CNCc4cc5ccccc5o4)cc3)c(F)c2)C(=O)O1 [Compound 4020]

MIC [4]: 16 µg/mL (≈ 29.6 µM)
SMILES: CC(=O)NC[C@H]1CN(c2ccc(-c3ccc(CNC(=O)C4(NC(=O)OC(C)(C)C)CC4)cc3)c(F)c2)C(=O)O1 [Compound 4304, [1-({4′-[5-(S)-(Acetylamino-methyl)-2-oxo-oxazolidin-3-yl]-2′-fluoro-biphenyl-4-ylmethyl}-carbamoyl)-cyclopropyl]-carbamic acid tert-butyl ester]

MIC [4]: 1 µg/mL (≈ 2.13 µM)
SMILES: CC(=O)NC[C@H]1CN(c2ccc(-c3ccc(C(=O)NCc4ncsn4)cc3)c(F)c2)C(=O)O1 [Compound 4225, 4′-[5-(S)-(Acetylamino-methyl)-2-oxo-oxazolidin-3-yl]-2′-fluoro-biphenyl-4-carboxylic acid ([1,2,4]thiadiazol-3-ylmethyl)-amide]

MIC [4]: 2 µg/mL (≈ 4.28 µM)
SMILES: CC(=O)NC[C@H]1CN(c2ccc(-c3ccc(Cn4nnc(C(N)=O)c4N)cc3)c(F)c2)C(=O)O1 [Compound 1026, 1-{4′-[5-(S)-(Acetylamino-methyl)-2-oxo-oxazolidin-3-yl]-2′-fluoro-biphenyl-4-ylmethyl}-5-amino-1H-[1,2,3]triazole-4-carboxylic acid amide]
